Data on three molecules can be found in PubChem BioAssay AID602483 (Southern Research Specialized Biocontainment Screening …, 2012).

For assay [1], the system named is HEp-2 cell viability, cytotoxicity. The assay can be described thus: viability of HEp-2 cells – cell-based, set 1, cytotoxicity control, dose response (AID 602483).
Experiment in assay [2]: as above
The note with it: HEp-2 cell viability, cytotoxicity; at 50 µM (top of the series).

The source made the active and inactive calls. No rule for the calls is given here.

Usually CC50 stands for the concentration that lowers cell viability or growth by half. Turning to `CN(C(=O)Cc1cccs1)c1nc2c(s1)CCCC2`, the CC50 in assay [1] is 5.67 µM.
As a reminder, the viability is the share of living cells, or the viability signal relative to a control. Consider `CN1CCN(Cc2nc3ccc([N+](=O)[O-])cc3c(=O)n2-c2ccccc2F)CC1`, for which the viability in assay [2] is 70.1% (inactive).
`CCN1CCN(Cc2nc3ccc([N+](=O)[O-])cc3c(=O)n2-c2ccccc2F)CC1`: the viability in assay [2] is 72.6% (inactive).
